From ChEMBL document CHEMBL2150866, “Irreversible 4-Aminopiperidine Transglutaminase 2 Inhibitors for Huntington's Disease” (ACS Med Chem Lett, 2012)

Legend:
[1] = target: T1, Protein-glutamine gamma-glutamyltransferase (Homo sapiens, UniProt P21980); experiment: Inhibition of human TGM2
T1 sequence (P21980 whole entry): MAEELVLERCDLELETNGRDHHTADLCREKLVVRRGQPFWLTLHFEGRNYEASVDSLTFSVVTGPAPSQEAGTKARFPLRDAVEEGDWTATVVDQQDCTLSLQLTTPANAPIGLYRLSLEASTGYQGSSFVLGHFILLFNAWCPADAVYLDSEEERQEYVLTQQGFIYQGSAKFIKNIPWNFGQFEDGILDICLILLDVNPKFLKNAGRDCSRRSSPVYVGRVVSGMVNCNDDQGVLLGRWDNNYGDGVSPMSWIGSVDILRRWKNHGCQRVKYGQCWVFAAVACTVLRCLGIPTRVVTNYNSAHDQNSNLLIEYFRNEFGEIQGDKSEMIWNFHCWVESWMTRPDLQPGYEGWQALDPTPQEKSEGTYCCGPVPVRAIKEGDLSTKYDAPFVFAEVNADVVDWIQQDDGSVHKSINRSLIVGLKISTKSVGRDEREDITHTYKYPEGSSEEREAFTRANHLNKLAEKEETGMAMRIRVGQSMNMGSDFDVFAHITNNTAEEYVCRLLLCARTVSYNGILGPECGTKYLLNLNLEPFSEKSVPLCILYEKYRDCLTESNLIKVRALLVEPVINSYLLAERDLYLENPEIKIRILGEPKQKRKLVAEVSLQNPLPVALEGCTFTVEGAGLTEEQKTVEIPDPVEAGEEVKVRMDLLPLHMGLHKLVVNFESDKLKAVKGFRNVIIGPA

[2] = Half life in mouse plasma at 1 uM; assay type: ADME, cell-free
[3] = target: T2, Protein-glutamine gamma-glutamyltransferase K (Homo sapiens, UniProt P22735); experiment: Inhibition of human TGM1
T2 sequence (P22735 whole entry): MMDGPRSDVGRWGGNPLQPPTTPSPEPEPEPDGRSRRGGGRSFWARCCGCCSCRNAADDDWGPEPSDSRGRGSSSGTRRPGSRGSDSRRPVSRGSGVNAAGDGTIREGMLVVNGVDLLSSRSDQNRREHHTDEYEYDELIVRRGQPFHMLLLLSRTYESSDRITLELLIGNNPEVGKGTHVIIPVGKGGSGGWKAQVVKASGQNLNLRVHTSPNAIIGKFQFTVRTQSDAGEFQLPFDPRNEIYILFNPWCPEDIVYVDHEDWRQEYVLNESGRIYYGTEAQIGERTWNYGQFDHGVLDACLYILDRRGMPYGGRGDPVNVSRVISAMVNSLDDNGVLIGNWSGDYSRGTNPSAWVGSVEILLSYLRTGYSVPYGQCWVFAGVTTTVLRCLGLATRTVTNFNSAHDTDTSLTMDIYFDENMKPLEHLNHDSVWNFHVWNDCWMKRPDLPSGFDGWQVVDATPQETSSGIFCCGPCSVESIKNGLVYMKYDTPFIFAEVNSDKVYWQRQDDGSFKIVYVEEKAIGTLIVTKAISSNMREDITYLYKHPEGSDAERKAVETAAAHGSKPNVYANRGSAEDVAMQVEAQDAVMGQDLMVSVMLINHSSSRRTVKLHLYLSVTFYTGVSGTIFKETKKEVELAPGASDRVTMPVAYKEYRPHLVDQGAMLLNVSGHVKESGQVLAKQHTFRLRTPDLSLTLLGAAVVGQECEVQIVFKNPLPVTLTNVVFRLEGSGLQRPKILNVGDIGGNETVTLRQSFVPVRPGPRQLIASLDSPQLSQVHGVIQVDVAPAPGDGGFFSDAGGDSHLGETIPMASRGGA

[4] = target: T3, Protein-glutamine gamma-glutamyltransferase E (Homo sapiens, UniProt Q08188); experiment: Inhibition of human TGM3
T3 sequence (Q08188 whole entry): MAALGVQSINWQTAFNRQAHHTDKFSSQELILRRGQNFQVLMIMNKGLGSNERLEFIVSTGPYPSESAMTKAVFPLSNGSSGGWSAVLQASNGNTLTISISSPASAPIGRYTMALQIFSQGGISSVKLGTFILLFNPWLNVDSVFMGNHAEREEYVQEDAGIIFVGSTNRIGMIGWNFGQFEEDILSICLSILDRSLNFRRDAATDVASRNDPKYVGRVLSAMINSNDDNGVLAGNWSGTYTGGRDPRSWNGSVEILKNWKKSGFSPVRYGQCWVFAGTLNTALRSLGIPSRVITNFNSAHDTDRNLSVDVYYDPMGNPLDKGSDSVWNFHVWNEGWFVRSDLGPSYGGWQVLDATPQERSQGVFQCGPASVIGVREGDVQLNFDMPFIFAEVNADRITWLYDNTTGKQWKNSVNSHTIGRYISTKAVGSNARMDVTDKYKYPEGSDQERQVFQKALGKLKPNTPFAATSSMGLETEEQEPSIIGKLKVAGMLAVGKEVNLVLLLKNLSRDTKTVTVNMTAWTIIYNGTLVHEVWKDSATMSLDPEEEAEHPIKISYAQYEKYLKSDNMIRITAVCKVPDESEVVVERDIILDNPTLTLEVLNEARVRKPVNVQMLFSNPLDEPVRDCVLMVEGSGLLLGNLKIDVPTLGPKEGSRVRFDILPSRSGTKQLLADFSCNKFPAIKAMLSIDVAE

[5] = target: T4, Protein-glutamine gamma-glutamyltransferase 6 (Homo sapiens, UniProt O95932); experiment: Inhibition of human TGM6
T4 sequence (O95932 whole entry): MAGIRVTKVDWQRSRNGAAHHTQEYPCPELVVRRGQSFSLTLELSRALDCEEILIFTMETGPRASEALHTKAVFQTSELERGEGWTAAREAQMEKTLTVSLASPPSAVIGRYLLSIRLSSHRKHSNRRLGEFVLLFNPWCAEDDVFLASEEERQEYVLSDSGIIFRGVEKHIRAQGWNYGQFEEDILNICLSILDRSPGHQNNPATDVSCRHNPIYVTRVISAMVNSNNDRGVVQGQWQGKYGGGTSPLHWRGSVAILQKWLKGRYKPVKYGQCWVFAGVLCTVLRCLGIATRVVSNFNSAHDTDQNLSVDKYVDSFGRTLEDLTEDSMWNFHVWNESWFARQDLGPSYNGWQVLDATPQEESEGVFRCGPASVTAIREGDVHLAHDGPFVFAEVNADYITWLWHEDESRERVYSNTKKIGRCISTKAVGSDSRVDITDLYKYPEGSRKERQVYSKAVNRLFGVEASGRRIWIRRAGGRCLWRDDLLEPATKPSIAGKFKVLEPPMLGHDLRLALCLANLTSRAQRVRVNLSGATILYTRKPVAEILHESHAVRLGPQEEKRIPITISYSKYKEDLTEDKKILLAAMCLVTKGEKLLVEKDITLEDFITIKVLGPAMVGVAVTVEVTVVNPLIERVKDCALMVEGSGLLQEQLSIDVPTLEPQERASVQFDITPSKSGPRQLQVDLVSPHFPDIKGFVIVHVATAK

[6] = target: T5, Coagulation factor XIII A chain (Homo sapiens, UniProt P00488); experiment: Inhibition of human factor-13A
T5 sequence (P00488 whole entry): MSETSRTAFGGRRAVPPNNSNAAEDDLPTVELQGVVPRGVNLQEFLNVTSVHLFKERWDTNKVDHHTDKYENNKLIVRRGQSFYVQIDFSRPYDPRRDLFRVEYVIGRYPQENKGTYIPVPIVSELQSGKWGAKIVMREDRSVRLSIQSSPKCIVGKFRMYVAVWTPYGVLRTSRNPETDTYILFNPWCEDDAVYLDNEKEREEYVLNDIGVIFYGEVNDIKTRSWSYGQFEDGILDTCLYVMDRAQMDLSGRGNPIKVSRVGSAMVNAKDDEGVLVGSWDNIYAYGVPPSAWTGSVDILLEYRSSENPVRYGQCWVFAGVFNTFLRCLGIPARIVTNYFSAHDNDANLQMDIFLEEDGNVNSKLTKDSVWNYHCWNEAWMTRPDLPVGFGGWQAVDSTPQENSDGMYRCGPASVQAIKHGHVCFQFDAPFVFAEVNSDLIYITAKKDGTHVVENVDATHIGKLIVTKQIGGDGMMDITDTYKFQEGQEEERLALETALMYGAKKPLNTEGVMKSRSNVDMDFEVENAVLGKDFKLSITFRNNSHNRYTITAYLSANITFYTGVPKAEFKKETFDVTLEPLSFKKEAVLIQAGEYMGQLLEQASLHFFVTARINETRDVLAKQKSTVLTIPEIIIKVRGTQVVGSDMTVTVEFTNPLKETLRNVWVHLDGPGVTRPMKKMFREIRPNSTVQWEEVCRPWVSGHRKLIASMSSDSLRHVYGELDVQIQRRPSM

[7] = Half life in human plasma at 1 uM; assay type: ADME, cell-free
[8] = Chemical stability of the compound in phosphate buffer at pH 7.4 assessed as GSH adduct formation after 120 hrs; assay type: physicochemical; conditions: pH 7.4, 120 h
[9] = Kinetic solubility of the compound in phosphate buffered saline at pH 7.4; assay type: physicochemical; conditions: read-out: Kinetic_solubility
[10] = Intrinsic clearance in mouse liver microsomes at 1 uM; assay type: ADME, Microsome; conditions: read-out: CLH
[11] = Intrinsic clearance in human liver microsomes at 1 uM; assay type: ADME, Microsome; conditions: read-out: CLH
[12] = Apparent permeability from apical to basolateral side of wild type MDCK cells; assay type: ADME, cell-based, Canis lupus familiaris; conditions: dog
[13] = Efflux ratio of permeability in wild type MDCK cells; assay type: ADME, cell-based, Canis lupus familiaris; conditions: dog
[14] = target: T6, Protein-glutamine gamma-glutamyltransferase 2 (Mus musculus, UniProt P21981); experiment: Inhibition of mouse TGM2
T6 sequence (P21981 whole entry): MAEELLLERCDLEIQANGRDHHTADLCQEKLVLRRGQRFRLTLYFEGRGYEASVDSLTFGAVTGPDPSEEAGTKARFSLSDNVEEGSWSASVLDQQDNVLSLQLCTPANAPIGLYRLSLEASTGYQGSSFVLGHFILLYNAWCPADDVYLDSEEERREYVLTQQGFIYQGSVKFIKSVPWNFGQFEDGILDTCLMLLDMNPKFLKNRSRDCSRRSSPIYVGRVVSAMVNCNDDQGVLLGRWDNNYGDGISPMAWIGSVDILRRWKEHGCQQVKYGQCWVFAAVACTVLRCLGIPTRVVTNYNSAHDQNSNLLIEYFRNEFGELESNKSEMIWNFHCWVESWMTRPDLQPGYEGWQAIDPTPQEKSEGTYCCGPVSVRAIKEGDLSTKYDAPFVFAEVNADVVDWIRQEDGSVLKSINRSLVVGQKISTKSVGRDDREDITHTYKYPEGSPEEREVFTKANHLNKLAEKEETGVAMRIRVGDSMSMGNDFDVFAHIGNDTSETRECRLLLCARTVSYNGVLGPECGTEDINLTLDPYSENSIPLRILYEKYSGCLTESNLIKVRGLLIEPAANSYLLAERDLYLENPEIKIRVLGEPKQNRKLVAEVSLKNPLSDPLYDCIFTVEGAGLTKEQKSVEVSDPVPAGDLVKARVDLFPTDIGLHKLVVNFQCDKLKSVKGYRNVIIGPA

| Structure (SMILES) | IC50 [1] [nM] | half-life at 1 µM [2] [h] | IC50 [3] [nM] | IC50 [4] [nM] | IC50 [5] [nM] | IC50 [6] [nM] | half-life at 1 µM [7] [h] | Stability [8] | solubility kinetic [9] [µg/mL] | microsomal CLint at 1 µM [10] [µL/min/mg] | microsomal CLint at 1 µM [11] [µL/min/mg] | Papp A→B [12] [×10⁻⁶ cm/s] | efflux ratio [13] | IC50 [14] [nM] |
| --- | --- | --- | --- | --- | --- | --- | --- | --- | --- | --- | --- | --- | --- | --- |
| C=CC(=O)NC1CCN(S(=O)(=O)c2ccc(NC(=O)OCc3ccccc3)cc2)CC1 | 280 | 4 | 910 | > 80000 | 8900 | 3600 | > 6 | Stable | – | – | – | – | – | – |
| C=CC(=O)NC1CCN(S(=O)(=O)c2ccc(C(=O)NCCc3ccccc3)cc2)CC1 | 180 | > 6 | – | – | – | – | > 6 | – | < 10 | 99 | 595 | 8.3 | 44 | – |
| C=CC(=O)NC1CCN(S(=O)(=O)c2ccc(C(=O)NCCc3ccc(OC)cc3)cc2)CC1 | – | > 6 | 1200 | – | 34000 | 6400 | > 6 | – | – | – | – | – | – | 55 |
